Assay: xn = mol fraction of the nth substance listed
Conditions: 100 kPa

viscosity (303.15 K, x1 = 0.0941) [mPa·s] | viscosity (303.15 K, x1 = 0.483) [mPa·s] | viscosity (313.15 K, x1 = 0.0941) [mPa·s] | viscosity (313.15 K, x1 = 0.1894) [mPa·s] | viscosity (313.15 K, x1 = 0.483) [mPa·s] | viscosity (313.15 K, x1 = 0.5836) [mPa·s] | viscosity (323.15 K, x1 = 0.0941) [mPa·s] | viscosity (323.15 K, x1 = 0.1894) [mPa·s] | viscosity (323.15 K, x1 = 0.2859) [mPa·s] | viscosity (323.15 K, x1 = 0.483) [mPa·s] | viscosity (323.15 K, x1 = 0.5836) [mPa·s] | viscosity (333.15 K, x1 = 0.0941) [mPa·s] | viscosity (333.15 K, x1 = 0.1894) [mPa·s] | viscosity (333.15 K, x1 = 0.2859) [mPa·s] | viscosity (333.15 K, x1 = 0.483) [mPa·s] | viscosity (333.15 K, x1 = 0.5836) [mPa·s] | viscosity (303.15 K, x2 = 0) [mPa·s] | viscosity (323.15 K, x2 = 0) [mPa·s] | viscosity (333.15 K, x2 = 0) [mPa·s] | Compound
307 | 1491.9 | 155 | 143.2 | 572 | 816 | 88 | 80.7 | 292 | 257 | 348 | 54.4 | 49.5 | 153 | 130.5 | 170.6 | – | – | – | OC[C@@H](O)[C@@H](O)[C@H](O)[C@@H](O)CO + CC(=O)[O-].CC[n+]1ccn(C)c1
– | – | – | – | – | – | – | – | – | – | – | – | – | – | – | – | 89.4 | 34.6 | 23.8 | CC(=O)[O-].CC[n+]1ccn(C)c1 + OC[C@H](O)[C@@H](O)[C@H](O)[C@H](O)CO
